Experimental findings from US4260606A, “3-Methyleneazetidine derivatives” (A. H. Robins Company, Inc., priority 1979, dated 1981) are described below.

In the assay the test system is Tetrabenazine-Induced Ptosis. Nature of the assay: Blockade of Tetrabenazine-Induced Ptosis in Mice (anti-tetrabenazine test). It is filed as in vivo, mice (ICR-DUB strain). To be noted: for ED50: Mus musculus, ip, read-out: ED50 (95% Confidence Limits), blockade of tetrabenazine-induced ptosis. Here is the method:
Antidepressant agents block many of the behavioral and physiological effects of tetrabenazine and reserpine, such as motor depression, hypothermia, and ptosis. […] Thirty minutes later the presence or absence of complete eyelid closure (ptosis) is assessed in each animal. For compounds which produced blockage of ptosis in all animals, and ED50 value is obtained using a minimum of three geometrically spaced doses with five mice/dose.

[1] abbreviates: mice, IP, 30 minutes prior to tetrabenazine 32 mg/kg IP, ptosis assessed thirty minutes later, probit analysis, 95% confidence limits.

Molecules are shown by their SMILES. Values joined by “and” are separate entries in the source; they are usually repeats but may differ in a detail not shown here. Equal values may be shown once. Read-outs that look alike come from different tables or passages of the source.

For the compound `CN(C)CCCN1c2ccccc2CCc2ccccc21` [imipramine], under setting [1], the ED50 (commonly the dose that gives a 50% effect, or the effect in half of the subjects) was determined as 0.3 mg/kg; the “ED50 (95% Confidence Limits), blockade of tetrabenazine-induced ptosis” value was 0.4 (0.2-0.9) mg/kg IP and 0.5 (0.2-1.2) mg/kg IP.

In the case of `CCOc1ccccc1OCC1CNCCO1` (stereo not drawn) [viloxazine], the ED50 came to 1.5 mg/kg.
